Data: patent publication US20180110754A1, “CENICRIVIROC FOR THE TREATMENT OF FIBROSIS” (Tobira Therapeutics, Inc., priority 2015, published 2018)
Read-outs that look alike come from different tables or passages of the source.

How the values were obtained:
[1] = tested on: unilateral ureter occlusion (UUO) renal fibrosis; assay: Mouse UUO model of renal fibrosis; type: in vivo, CD-1 mice
Experimental: Test animals were allocated to weight-matched treatment groups on the day prior to the surgical procedure (Day-1). Male CD-1 mice (N=51; age, 7-8 weeks) underwent either sham surgery or total ligation of the right ureter, i.e. UUO, via aseptic laparotomy (FIG. 12). […] Another group received the anti-transforming growth factor TGF-β1 antibody, compound 1D11 (positive control) at 3 mg/kg/day from Days-1 to 4, injected intraperitoneally once daily, and vehicle control from Days 0 to 5. […] On Day 5, animals were anaesthetized, blood and tissues were collected prior to sacrifice.
Study endpoints included: a) body and kidney weights; b) fibrosis in obstructed kidney evaluated via histological quantitative image analysis of picrosirius red staining (ten images/depth/kidney obtained and assessed in a blinded fashion using light microscopy [at 200×] to enable sampling of 60-70% of the renal cortical area) and quantified by a composite Collagen Volume Fraction (CVF [% total area imaged]) score expressed as the average positive stain across three anatomically distinct ([…] apart) tissue sections, or depths, from the obstructed kidney; c) hydroxyproline content of frozen renal cortical tissue biopsies as assessed by biochemical analyses; d) mRNA expression of profibrotic and inflammatory biomarkers (including MCP-1, Collagen 1a1, Collagen 3a1, TGF-β1, Fibronectin-1, α-smooth muscle actin (α-SMA) and connective tissue growth factor-1 (CTGF-1); assessed via Luminex® (Life Technologies™, Carlsbad, Calif., USA) assay with relative expression normalised to HPRT (hypoxanthine phosphoribosyltransferase).
Data are expressed as mean±standard error of mean (SEM). Statistical analyses were performed using GraphPad Prism® (GraphPad Software, Inc., San Diego, Calif., USA). Treatment differences between sham-surgery+vehiclecontrol and UUO+vehicle-control groups, and between UUO+vehicle-control and UUO+compound-1D11 (positive control) groups, were analysed by unpaired t-Test. Treatment differences between UUO+vehicle-control and CVC-dose groups were analysed by one-way ANOVA (analysis of variance) with Dunnett's test (post-hoc).

Mouse toxicity studies = type: in vivo; conditions: doses up to 2000 mg/kg/day, no surgical procedures
[2] = Tissue distribution in rodents; type: in vivo
CCR5 = CCR5 (Homo sapiens, UniProt P51681); assay: RANTES-induced CCR5 internalization / CCR5 receptor occupancy in PBMCs (flow cytometry); type: cell-based
Experimental: The capacity of each drug to inhibit CCR5 or CCR2 internalization was evaluated. Cell-surface expression of CCR5 and CCR2 was assessed by flow cytometry, and fluorescence values were converted into molecules of equivalent soluble fluorescence (MESF).

[3] = Study 202: ECG abnormalities and vital signs; type: in vivo, human; conditions: for HR Abnormally high, n subjects / HR Abnormally low, n subjects / PR Abnormally high, n subjects / QRS Abnormally high, n subjects / QRS Abnormally low, n subjects / QTcB interval Borderline (450-480 ms), n subjects / QTcB interval Increase by >30-60 ms, n subjects / QTcB interval Increase by >60 ms, n subjects / QTcB interval Pathologically prolonged, n subjects / QTcB interval Prolonged, n subjects / QTcF interval Borderline (450-480 ms), n subjects / QTcF interval Increase by >30-60 ms, n subjects / QTcF interval Increase by >60 ms, n subjects / QTcF interval Pathologically prolonged, n subjects / QTcF interval Prolonged, n subjects: through Week 48
[4] = tested on: thioacetamide (TAA)-induced hepatic fibrosis; assay: Rat model of thioacetamide-induced liver fibrosis and cirrhosis; type: in vivo, Sprague-Dawley rats; conditions: for Reduction of fibrosis (collagen morphometry): weeks 0-8
Experimental: Fibrosis was induced in male Sprague-Dawley rats by intraperitoneal administration of TAA 150 mg/kg 3 times/week for 8 weeks. […] Biochemical, gene expression and histologic evaluations of the liver were conducted.

HIV-1 = assay: Study 201: pharmacokinetic/pharmacodynamic Emax model; type: in vivo, human; conditions: for Emax: read-out: Percent of the maximum inhibitory effect at average Css (Emax model)
Description: Drug response was characterized using the following maximum effect (Emax) model:
where E is effect, E0 is the baseline effect (fixed to 0), Imax is the maximum inhibition, C denotes the PK variable (AUC0-24, Cmax, or steady-state concentration [Css]), IC50 is the value of the PK variable which corresponds to 50% of the maximum inhibition and γ is the shape parameter which describes the degree of sigmoidicity.

[5] = tested on: APAP-induced acute liver injury; assay: Acetaminophen (APAP)-induced acute liver injury in mice; type: in vivo, C57BL/6J mice
Experimental: Methods: […] […] Liver injury and immune cell phenotypes were analyzed. For mechanistic studies, monocyte-derived macrophage subsets and resident macrophages (Kupffer cells) were sorted by FACS from injured livers and subjected to array-based Nanostring gene expression analysis. […] The human counterparts of both agents are currently tested in phase II trials for different indications (diabetic nephropathy or NASH, respectively).

[6] = All CVC (N = 115), EFV (N = 28)

Sequence of CCR5 (P51681 whole entry): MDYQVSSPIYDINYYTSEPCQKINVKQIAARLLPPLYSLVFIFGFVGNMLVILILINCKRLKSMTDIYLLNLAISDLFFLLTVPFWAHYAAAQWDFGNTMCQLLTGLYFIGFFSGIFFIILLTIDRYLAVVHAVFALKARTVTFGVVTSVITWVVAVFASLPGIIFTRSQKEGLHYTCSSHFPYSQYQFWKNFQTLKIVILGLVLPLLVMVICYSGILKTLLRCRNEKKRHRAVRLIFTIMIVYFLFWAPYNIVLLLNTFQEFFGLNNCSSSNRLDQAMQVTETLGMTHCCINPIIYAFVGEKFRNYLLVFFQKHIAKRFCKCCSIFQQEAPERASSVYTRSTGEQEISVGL

## CCCCOCCOc1ccc(-c2ccc3c(c2)/C=C(/C(=O)Nc2ccc([S@@+]([O-])Cc4cncn4CCC)cc2)CCCN3CC(C)C)cc1 [CVC, (S)-8-[4-(2-Butoxyethoxy)phenyl]-1-isobutyl-N-(4-{[(1-propyl-1H-imidazol-5-yl)methyl]sulfinyl}phenyl)-1,2,3,4-tetrahydro-1-benzazocine-5-carboxamide]
[1]; CVC 7 mg/kg/day, Day 5
  Effect on body weight: no effect on body weight
[1]; CVC 100 mg/kg/day, N=9, after UUO surgery
  Outcome of the 100 mg/kg/day group: terminated early due to moribundity
[1]; CVC 7 and 20 mg/kg/day
  Effect on UUO-induced increase in obstructed kidney hydroxyproline content: Neither dose of CVC tested affected UUO-induced increases
[1]; obstructed kidney cortex
  Effect on UUO-induced Collagen 1a1, Collagen 3a1, TGF-β1 and Fibronectin-1 mRNA expression: did not reach statistical significance
  Effect on UUO-induced MCP-1, α-SMA and CTGF-1 mRNA expression: did not have significant effects
Mouse toxicity studies
  Tolerability: well tolerated
[2]
  Tissue distribution: high distribution in the liver, mesenteric lymph node, and intestine
CCR5; CCR5, […] nM for CD4+ and 2.3 nM for CD8+ T-cells, ex vivo in humans
  receptor occupancy at […]: ≥ 90%
CCR5; CD4+ T cells
  CCR5 receptor occupancy at saturation: ~91%
  Effective concentration at which saturation of CCR5 was reached: 3.1 nM
CCR5; CD8+ T cells
  CCR5 receptor occupancy at saturation: ~90%
  Effective concentration at which saturation of CCR5 was reached: 2.3 nM
CCR5; in the absence of RANTES
  Cell-surface expression of CCR5: increased cell-surface expression of CCR5
[3]; [6]
  HR Abnormally high, n subjects: 0
  HR Abnormally low, n subjects: 0
  PR Abnormally high, n subjects: 3
  QRS Abnormally high, n subjects: 1
  QRS Abnormally low, n subjects: 0
  QTcB interval Borderline (450-480 ms), n subjects: 6
  QTcB interval Increase by >30-60 ms, n subjects: 9
  QTcB interval Increase by >60 ms, n subjects: 1
  QTcB interval Pathologically prolonged, n subjects: 0
  QTcB interval Prolonged, n subjects: 0
  QTcF interval Borderline (450-480 ms), n subjects: 2
  QTcF interval Increase by >30-60 ms, n subjects: 7
  QTcF interval Increase by >60 ms, n subjects: 1
  QTcF interval Pathologically prolonged, n subjects: 0
  QTcF interval Prolonged, n subjects: 0
[3]; CVC 100 mg (N = 58)
  HR Abnormally high, n subjects: 0
  HR Abnormally low, n subjects: 0
  PR Abnormally high, n subjects: 2
  QRS Abnormally high, n subjects: 1
  QRS Abnormally low, n subjects: 0
  QTcB interval Borderline (450-480 ms), n subjects: 4
  QTcB interval Increase by >30-60 ms, n subjects: 6
  QTcB interval Increase by >60 ms, n subjects: 1
  QTcB interval Pathologically prolonged, n subjects: 0
  QTcB interval Prolonged, n subjects: 0
  QTcF interval Borderline (450-480 ms), n subjects: 1
  QTcF interval Increase by >30-60 ms, n subjects: 4
  QTcF interval Increase by >60 ms, n subjects: 1
  QTcF interval Pathologically prolonged, n subjects: 0
  QTcF interval Prolonged, n subjects: 0
[3]; CVC 100 mg arm
  Subjects with QTc increase of >60 msec: 1 subject
[3]; CVC 200 mg (N = 57)
  HR Abnormally high, n subjects: 0
  HR Abnormally low, n subjects: 0
  PR Abnormally high, n subjects: 1 (2%)
  QRS Abnormally high, n subjects: 0
  QRS Abnormally low, n subjects: 0
  QTcB interval Borderline (450-480 ms), n subjects: 2 (4%)
  QTcB interval Increase by >30-60 ms, n subjects: 3 (6%)
  QTcB interval Increase by >60 ms, n subjects: 0
  QTcB interval Pathologically prolonged, n subjects: 0
  QTcB interval Prolonged, n subjects: 0
  QTcF interval Borderline (450-480 ms), n subjects: 1 (2%)
  QTcF interval Increase by >30-60 ms, n subjects: 3 (6%)
  QTcF interval Increase by >60 ms, n subjects: 0
  QTcF interval Pathologically prolonged, n subjects: 0
  QTcF interval Prolonged, n subjects: 0
[4]; Group 1a: 30 mg/kg/day
  Reduction of collagen type 1 protein levels: 30%
  Reduction of α-SMA: 17%
[4]; Group 1a: 30 mg/kg/day concurrently with TAA
  Reduction of fibrosis (collagen morphometry): 49%
[4]; Group 1b: 100 mg/kg/day
  Reduction of collagen type 1 protein levels: 12%
  Reduction of α-SMA: 22%
[4]; Group 1b: 100 mg/kg/day concurrently with TAA
  Reduction of fibrosis (collagen morphometry): 38%
[4]; Group 2a: 30 mg/kg/day, weeks 4-8 (emerging fibrosis)
  Reduction in collagen: 36%
[4]; Group 3: weeks 8-12, cirrhosis present
  Effect on fibrogenic gene expression or fibrosis: no significant effect
HIV-1; Human immunodeficiency virus 1, 25 mg
  Emax: 54.9%
HIV-1; Human immunodeficiency virus 1, 50 mg
  Emax: 79.8%
HIV-1; Human immunodeficiency virus 1, 75 mg
  Emax: 85.9%
HIV-1; Human immunodeficiency virus 1, 150 mg
  Emax: 95.9%
HIV-1; in vivo
  Emax in the PK/PD model (HIV-1 RNA): −1.43 log10 copies/mL
[5]; CC14 and APAP models
  Reduction of Ly6C+ monocyte-derived macrophages in liver: 83-84%
[5]; CC14 and APAP models, p<0.01
  Pro-inflammatory Ly6C+ monocytes in blood: significantly reduced
[5]; CVC 100 mg/kg oral
  Reduction in ALT: 75%
  Reduction in necrotic area fraction: 61%
[5]; CVC 100 mg/kg oral, 12h after APAP, vehicle 6.01%±0.66
  Ly6C+ monocyte-derived macrophages in liver (% of liver leukocytes): 0.95%±0.11
[5]; CVC 100 mg/kg oral, vehicle 27.9%±4.05
  Necrotic area fraction: 10.9%±3.50
[5]; WT mice
  Monocyte accumulation in APAP-injured livers: significantly reducing monocyte accumulation
[5]; WT mice, p<0.05 for mNOX, p<0.01 for CVC
  Protection from liver damage (ALT levels): significant protection from liver damage

## O=C1Nc2ccc(Cl)cc2[C@@](C#CC2CC2)(C(F)(F)F)O1 [EFV, efavirenz, reference compound]
[3]; [6]
  HR Abnormally high, n subjects: 0
  HR Abnormally low, n subjects: 0
  PR Abnormally high, n subjects: 1
  QRS Abnormally high, n subjects: 0
  QRS Abnormally low, n subjects: 0
  QTcB interval Borderline (450-480 ms), n subjects: 3
  QTcB interval Increase by >30-60 ms, n subjects: 4
  QTcB interval Increase by >60 ms, n subjects: 0
  QTcB interval Pathologically prolonged, n subjects: 0
  QTcB interval Prolonged, n subjects: 0
  QTcF interval Borderline (450-480 ms), n subjects: 0
  QTcF interval Increase by >30-60 ms, n subjects: 4
  QTcF interval Increase by >60 ms, n subjects: 0
  QTcF interval Pathologically prolonged, n subjects: 0
  QTcF interval Prolonged, n subjects: 0
